From ChEMBL document CHEMBL1126391 (Bioorg Med Chem Lett, 1992) come the findings set out here.

For data set [1], the target named is T1, Human immunodeficiency virus type 1 reverse transcriptase (Human immunodeficiency virus 1, UniProt Q72547). The experiment in a line: Ability to inhibit HIV-1 IIIB reverse transcriptase catalyzed incorporation of tritiated thymidine triphosphate onto a biotinylated rN.dN template primer.
Another data set has as its system H9. The data set is described as follows: In vitro antiviral activity against human T-cell line (H9) infected with HIV-1 IIIB was determined as the lowest concentration required to reduce tissue culture supernatant p24 levels on day 7 by 90%. Particulars: H9, 168 h. The data set is classed as functional.
Data set [2] relates to C8166. The experiment in a line: In vitro anti-viral activity against C8166 cells (human T-cell line), expressed as the lowest test concentration affording complete protection to the culture (Infectious titre);. 0.1-1. The data set is classed as functional.
Data set [3] can be described thus: Concentration determined to be cytotoxic (reduced cell number as compared with controls), was recorded after 7 days incubation in the […] assay system. The data set is classed as cell-based. The conditions noted are these: human, H9 cells (H9/HIV-IIIB assay system); read-out: Cell toxicity.
For data set [4], the target named is T1, Human immunodeficiency virus type 1 reverse transcriptase. The data set is described as follows: Ability to inhibit HIV-1 IIIB reverse transcriptase catalyzed incorporation of tritiated thymidine triphosphate onto a biotinylated rA.dT template primer.
Data set [5] relates to C8166. The data set is described as follows: In vitro anti-viral activity against C8166 cells (human T-cell line), expressed as the lowest test concentration affording complete protection to the culture (Infectious titre); 0.1-1. Format: functional.
Data set [6] concerns C8166. The data set is described as follows: In vitro anti-viral activity against C8166 cells (human T-cell line), expressed as the lowest test concentration affording complete protection to the culture (Infectious titre). Format: functional.
For data set [7], the system named is C8166. The data set is described as follows: In vitro anti-viral activity against C8166 cells (human T-cell line), expressed as the lowest test concentration affording complete protection to the culture (Infectious titre);. 0.1-0.5. Format: functional.
Data set [8] relates to C8166. The data set is described as follows: In vitro anti-viral activity against C8166 cells (human T-cell line), expressed as the lowest test concentration affording complete protection to the culture (Infectious titre); 0.01-0.1. The data set is classed as functional.
For data set [9], the system named is C8166. The data set is described as follows: In vitro anti-viral activity against C8166 cells (human T-cell line), expressed as the lowest test concentration affording complete protection to the culture (Infectious titre); 0.1-0.5. The data set is classed as functional.

For the compound `CCN1c2ncccc2-c2nccn2-c2c(C)ccnc21`, the IC50 in data set [1] is 245 nM; in [4], 1620 nM. The same compound displayed a concentration for an effect of 90% (IC90) in the data set with H9 of 550 nM. In addition, the IC100 in the data set with C8166 [2] is 0.1 µM. Further, the MCC at 168 h in data set [3] is over 100 µM.

Turning to `CCN1c2ncccc2-c2nnc(CN(C)C)n2-c2cccnc21`, the IC50 in [1] and in [4] was over 100000 nM throughout.

As for `CCN1c2ncccc2-c2nccn2-c2ccc(N3CCCC3)nc21`, the IC100 in the data set on C8166 [5] turned out to be 0.1 µM. Besides, the IC50 in [1] is 2000 nM; in [4], 3900 nM. The same compound returned a concentration for an effect of 90% (IC90) in the data set with H9 of 82 nM. In addition, the MCC at 168 h in [3] came to 100 µM.

As for `CCN1c2ncccc2-c2nccn2-c2ccc(OC)nc21`, the IC100 in the data set on C8166 [6] was 0.1 µM. For the same compound, the values for the IC50 in data set [1] and in data set [4] were 258 nM and 598 nM, respectively. The compound further had an IC90 in the data set on H9 of 8 nM. Besides, the MCC at 168 h in [3] was over 10 µM.

For `CCN1c2ncccc2-c2nccn2-c2cccnc21`, the concentration for half-maximal inhibition (IC50) came out at 775 nM in data set [1] and 11200 nM in [4]. This compound gave an IC90 with H9 of 70 nM. Besides, the MCC at 168 h in data set [3] is 50 µM. Besides, in the data set with C8166 [7], the IC100 was 0.1 µM.

As to `CCN1c2ncccc2-c2nnnn2-c2c(C)ccnc21`, the figures for the IC50 in data set [1] and in data set [4] were 6720 nM and 75100 nM, respectively.

Take `CCN1c2ncccc2-c2ncc(C)n2-c2ccc(N3CCCC3)nc21`: the IC50 in [1] is 1770 nM; in data set [4], 2700 nM.

In the case of `CCN1c2ncccc2-c2ncc(C)n2-c2cccnc21`, the values for the IC50 in data set [1] and in [4] were 425 nM and 1220 nM, respectively. For the same compound, the IC100 in the data set with C8166 [8] is 0.01 µM. This compound registered a 90% effect concentration (IC90) in the data set with H9 of 18 nM. Besides, the MCC at 168 h in data set [3] is over 100 µM.

For `CCN1c2ncccc2-c2nnc(C)n2-c2c(C)ccnc21`, in data set [4], the IC50 worked out at 198000 nM.

Regarding `CCN1c2ncccc2-c2ncc(C)n2-c2ccc(N(C)C)nc21`, the IC100 in the data set with C8166 [5] stood at 0.1 µM. The values for the half-inhibitory concentration (IC50) in data set [1] and in [4] were 1100 nM and 2400 nM, respectively. In the data set with H9, this compound had an IC90 of 250 nM. For the same compound, in data set [3], the MCC at 168 h is over 100 µM.

For `CCN1c2ncccc2-c2nccn2-c2ccc(O)nc21`, the concentration for half-maximal inhibition (IC50) was 6980 nM in data set [1] and 23900 nM in [4].

On to `CCN1c2ncccc2-c2nc(C)cn2-c2cccnc21`, for which the IC50 in data set [1] worked out at 2750 nM; in [4], 11200 nM.

As for `CCN1c2ncccc2-c2nccn2-c2ccc(N(C)C)nc21`, the IC100 with C8166 [6] turned out to be 0.1 µM. For the same compound, the half-maximal inhibitory concentration (IC50) in [1] was 2190 nM; in data set [4], 3900 nM. For the same compound, the IC90 in the data set on H9 turned out to be 41 nM. Also, the MCC at 168 h in [3] is 10 µM.

Take `Cc1ccnc2c1-n1ccnc1-c1cccnc1N2C1CC1`: the results for the IC50 in data set [1] and in data set [4] were 217 nM and 2050 nM, respectively.

Consider `Cc1nnc2n1-c1cccnc1N(C1CC1)c1ncccc1-2`, for which the 50% inhibitory concentration (IC50) in [1] amounted to 7820 nM; in [4], 11500 nM.

`CCN1c2ncccc2-c2nncn2-c2c(C)ccnc21`: in [4], the IC50 is 44500 nM.

In turn, `CCN1c2ncccc2-c2nncn2-c2cccnc21` yielded a half-inhibitory concentration (IC50) in [4] of 72800 nM.

With `CCN1c2ncccc2-c2ncc(C)n2-c2ccc(O)nc21`, in the data set on C8166 [5], the IC100 was 0.1 µM. For the same compound, the IC50 in [1] amounted to 3200 nM; in [4] it was 12200 nM. This compound also gave a 90% effect concentration (IC90) with H9 of 110 nM. For the same compound, in [3], the MCC at 168 h was over 100 µM.

The compound `Cc1ccnc2c1NC(=O)c1cccnc1N2C1CC1` [NEVIRAPINE] had an IC100 in the data set with C8166 [9] of 0.1 µM. The compound further returned an IC90 in the data set on H9 of 78 nM. Also, in data set [3], the MCC at 168 h was over 10 µM.

As for `CCc1nnc2n1-c1cccnc1N(CC)c1ncccc1-2`, the results for the IC50 in data set [1] and in [4] were 20200 nM and 56600 nM, respectively.

Consider `CCc1cnc2n1-c1cccnc1N(CC)c1ncccc1-2`, for which the IC50 in data set [1] is 1100 nM; in data set [4], 5630 nM.

As for `CCN1c2ncccc2-c2nnc(C)n2-c2cccnc21`, the IC50 in data set [4] turned out to be 38900 nM.

Turning to `CCN1c2ncccc2-c2nnc(-c3ccccc3)n2-c2cccnc21`, the IC50 in data set [4] is over 100000 nM.

For the compound `CCN1c2ncccc2-c2nnc(C(C)C)n2-c2cccnc21`, the IC50 in data set [1] is 62600 nM; in [4] it was over 100000 nM.

In the data set with C8166 [6], `CCN1c2ncccc2-c2ncc(C)n2-c2ccc(OC)nc21` had an IC100 of 0.01 µM. Moreover, the IC50 in data set [1] stood at 156 nM; in [4], 190 nM. Also, it took 2.3 nM to reach the 90% level in the data set on H9 (IC90). Also, in data set [3], the MCC at 168 h was over 10 µM.

With `CCN1c2ncccc2C(=O)Nc2c(C)ccnc21`, the IC50 in data set [1] is 1500 nM; in data set [4] it was 10300 nM.

As a reminder, the IC50 is the concentration that inhibits the measured activity by half. One may read the IC90 as the point of the concentration-response curve where the effect stands at 90%. Low values mean an effect from little substance, high ones a need for much substance.
